Results as given in patent US10798941B2, “Microbiocidal oxadiazole derivatives” (SYNGENTA PARTICIPATIONS AG, priority 2016, dated 2020).

Assays:
[1] = tested on: Phakopsora pachyrhizi; assay: Phakopsora pachyrhizi / soybean / leaf disc preventative (Asian soybean rust); assay type: in vivo; conditions: foliar, 288 h, 200 ppm in the applied formulation, soybean leaf disks, inoculated one day after application, assessed 12 to 14 days after application, vs untreated, read-out: disease control
Procedure: Leaf disks or leaf segments of various plant species are cut from plants grown in a greenhouse. The cut leaf disks or segments are placed in multiwell plates (24-well format) onto water agar. The leaf disks are sprayed with a test solution before (preventative) or after (curative) inoculation. Compounds to be tested are prepared as DMSO solutions (max. 10 mg/ml) which are diluted to the appropriate concentration with 0.025% Tween20 just before spraying. The inoculated leaf disks or segments are incubated under defined conditions (temperature, relative humidity, light, etc.) according to the respective test system. A single evaluation of disease level is carried out 3 to 14 days after inoculation, depending on the pathosystem. Percent disease control relative to the untreated check leaf disks or segments is then calculated.
Soybean leaf disks are placed on water agar in multiwell plates (24-well format) and sprayed with the formulated test compound diluted in water. One day after application leaf discs are inoculated by spraying a spore suspension on the lower leaf surface. After an incubation period in a climate cabinet of 24-36 hours in darkness at 20° C. and 75% rh leaf disc are kept at 20° C. with 12 h light/day and 75% rh. The activity of a compound is assessed as percent disease control compared to untreated when an appropriate level of disease damage appears in untreated check leaf disks (12 to 14 days after application).
The following compounds at 200 ppm in the applied formulation give at least 80% disease control in this test when compared to untreated control leaf disks under the same conditions, which show extensive disease development.

[2] = tested on: Puccinia recondita f. Sp. Tritici; assay: Puccinia recondita f. sp. tritici / wheat / leaf disc preventative (brown rust); assay type: in vivo; conditions: foliar, 168 h, 200 ppm in the applied formulation, wheat leaf segments cv. Kanzler, preventative, inoculated 1 day after application, assessed 7 to 9 days after application, vs untreated, read-out: disease control
In short: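 Wheat cv. Kanzler leaf segments on agar were sprayed with formulated compound in water, then inoculated with spores 1 day later. Incubated at 19° C, 75% rh, 12 h light/12 h dark; percent disease control versus untreated scored 7 to 9 days after application.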

[3] = tested on: Puccinia recondita f. Sp. Tritici; assay: Puccinia recondita f. sp. tritici / wheat / leaf disc curative (brown rust); assay type: in vivo; conditions: foliar, 144 h, 200 ppm in the applied formulation, wheat leaf segments cv. Kanzler, applied 1 day after inoculation, assessed 6 to 8 days after application, vs untreated, read-out: disease control
In short: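 Read-out is percent disease control relative to untreated segments, assessed 6 to 8 days after treatment once check disease is adequate. Kanzler wheat leaf segments on agar receive fungal spores, then test compound (DMSO stock diluted in 0.025% Tween20 or water) 1 day later, under 19° C and 75% relative humidity.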

[4] = tested on: Glomerella Lagenarium (Colletotrichum Lagenarium); assay: Glomerella lagenarium (Colletotrichum lagenarium) liquid culture / cucumber / preventative (anthracnose); assay type: cell-based; conditions: Colletotrichum orbiculare; 20 ppm in the applied formulation; liquid culture in PDB, 24° C., inhibition of growth measured photometrically 3 to 4 days after application, vs untreated; read-out: disease control
In short: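 Conidia from cryogenic storage were mixed into potato dextrose broth. This was added to compound diluted from DMSO into 0.025% Tween20, tested at 20 ppm. Plates were incubated in the dark at 24 °C and 96% relative humidity, and growth was read photometrically after 2–7 days as % activity versus untreated check.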

CCCSc1ncn(Cc2ccc(-c3noc(C(F)(F)F)n3)cc2)n1 [Compound 1.206, 3-[4-[(3-propylsulfanyl-1,2,4-triazol-1-yl)methyl]phenyl]-5-(trifluoromethyl)-1,2,4-oxadiazole]
≥ 80%: pest or weed control at 200 ppm [1] | pest or weed control at 200 ppm [2] | pest or weed control at 200 ppm [3] | inhibition of growth at 20 ppm [4]

COC(=O)c1cnn(Cc2ccc(-c3noc(C(F)(F)F)n3)cc2)c1C1CC1 [Compound 1.236, methyl 5-cyclopropyl-1-[[4-[5-(trifluoromethyl)-1,2,4-oxadiazol-3-yl]phenyl]methyl]pyrazole-4-carboxylate]
≥ 80%: pest or weed control at 200 ppm [1] | pest or weed control at 200 ppm [2] | pest or weed control at 200 ppm [3] | inhibition of growth at 20 ppm [4]

COC(=O)c1ncn(Cc2ccc(-c3noc(C(F)(F)F)n3)cc2)c1C(=O)OC [Compound 1.43, dimethyl 1-[[4-[5-(trifluoromethyl)-1,2,4-oxadiazol-3-yl]phenyl]methyl]imidazole-4,5-dicarboxylate]
≥ 80%: pest or weed control at 200 ppm [1] | pest or weed control at 200 ppm [2] | pest or weed control at 200 ppm [3] | inhibition of growth at 20 ppm [4]

FC(F)(F)c1nc(-c2ccc(Cn3ccnc3Br)cc2)no1 [Compound 1.49, 3-[4-[(2-bromoimidazol-1-yl)methyl]phenyl]-5-(trifluoromethyl)-1,2,4-oxadiazole]
≥ 80%: pest or weed control at 200 ppm [1] | pest or weed control at 200 ppm [2] | pest or weed control at 200 ppm [3] | inhibition of growth at 20 ppm [4]

FC(F)(F)c1nc(-c2ccc(Cn3cnnc3SCc3ccccc3)cc2)no1 [Compound 1.213, 3-[4-[(3-benzylsulfanyl-1,2,4-triazol-4-yl)methyl]phenyl]-5-(trifluoromethyl)-1,2,4-oxadiazole]
≥ 80%: pest or weed control at 200 ppm [1] | pest or weed control at 200 ppm [2] | pest or weed control at 200 ppm [3] | inhibition of growth at 20 ppm [4]

COc1nc(N)n(Cc2ccc(-c3noc(C(F)(F)F)n3)cc2)n1 [Compound 1.214, 5-methoxy-2-[[4-[5-(trifluoromethyl)-1,2,4-oxadiazol-3-yl]phenyl]methyl]-1,2,4-triazol-3-amine]
≥ 80%: pest or weed control at 200 ppm [1] | pest or weed control at 200 ppm [2] | pest or weed control at 200 ppm [3] | inhibition of growth at 20 ppm [4]

CC(C)ON=Cc1cnn(Cc2ccc(-c3noc(C(F)(F)F)n3)cc2)c1 [Compound 1.288, N-isopropoxy-1-[1-[[4-[5-(trifluoromethyl)-1,2,4-oxadiazol-3-yl]phenyl]methyl]pyrazol-4-yl]methanimine]
≥ 80%: pest or weed control at 200 ppm [1] | pest or weed control at 200 ppm [2] | pest or weed control at 200 ppm [3] | inhibition of growth at 20 ppm [4]

CCOC(=O)c1cccnc1-c1ccn(Cc2ccc(-c3noc(C(F)(F)F)n3)cc2)n1 [Compound 1.219, ethyl 2-[1-[[4-[5-(trifluoromethyl)-1,2,4-oxadiazol-3-yl]phenyl]methyl]pyrazol-3-yl]pyridine-3-carboxylate]
≥ 80%: pest or weed control at 200 ppm [1] | pest or weed control at 200 ppm [2] | pest or weed control at 200 ppm [3] | inhibition of growth at 20 ppm [4]

FC(F)(F)c1nc(-c2ccc(Cn3cnnc3)cc2)no1 [Compound 1.226, 3-[4-(1,2,4-triazol-4-ylmethyl)phenyl]-5-(trifluoromethyl)-1,2,4-oxadiazole]
≥ 80%: pest or weed control at 200 ppm [1] | pest or weed control at 200 ppm [2] | pest or weed control at 200 ppm [3] | inhibition of growth at 20 ppm [4]

Nc1nc(C(F)F)nn1Cc1ccc(-c2noc(C(F)(F)F)n2)cc1 [Compound 1.222, 5-(difluoromethyl)-2-[[4-[5-(trifluoromethyl)-1,2,4-oxadiazol-3-yl]phenyl]methyl]-1,2,4-triazol-3-amine]
≥ 80%: pest or weed control at 200 ppm [1] | pest or weed control at 200 ppm [2] | pest or weed control at 200 ppm [3] | inhibition of growth at 20 ppm [4]

COCc1c(C(=O)OC)cnn1Cc1ccc(-c2noc(C(F)(F)F)n2)cc1 [Compound 1.239, methyl 5-(methoxymethyl)-1-[[4-[5-(trifluoromethyl)-1,2,4-oxadiazol-3-yl]phenyl]methyl]pyrazole-4-carboxylate]
≥ 80%: pest or weed control at 200 ppm [1] | pest or weed control at 200 ppm [2] | pest or weed control at 200 ppm [3] | inhibition of growth at 20 ppm [4]

FC(F)(F)c1nc(-c2ccc(Cn3cnc(Br)c3)cc2)no1 [Compound 1.79, 3-[4-[(4-bromoimidazol-1-yl)methyl]phenyl]-5-(trifluoromethyl)-1,2,4-oxadiazole]
≥ 80%: pest or weed control at 200 ppm [1] | pest or weed control at 200 ppm [2] | pest or weed control at 200 ppm [3] | inhibition of growth at 20 ppm [4]

FC(F)(F)c1nc(-c2ccc(Cn3cnc(I)c3)cc2)no1 [Compound 1.96, 3-[4-[(4-iodoimidazol-1-yl)methyl]phenyl]-5-(trifluoromethyl)-1,2,4-oxadiazole]
≥ 80%: pest or weed control at 200 ppm [1] | pest or weed control at 200 ppm [2] | pest or weed control at 200 ppm [3] | inhibition of growth at 20 ppm [4]

FC(F)(F)c1nc(-c2ccc(Cn3ccc(Cl)n3)cc2)no1 [Compound 1.243, 3-[4-[(3-chloropyrazol-1-yl)methyl]phenyl]-5-(trifluoromethyl)-1,2,4-oxadiazole]
≥ 80%: pest or weed control at 200 ppm [1] | pest or weed control at 200 ppm [2] | pest or weed control at 200 ppm [3] | inhibition of growth at 20 ppm [4]

FC(F)(F)c1cn(Cc2ccc(-c3noc(C(F)(F)F)n3)cc2)cn1 [Compound 1.90]
≥ 80%: pest or weed control at 200 ppm [1] | pest or weed control at 200 ppm [2] | pest or weed control at 200 ppm [3] | inhibition of growth at 20 ppm [4]

Cc1cc(C)n(Cc2ccc(-c3noc(C(F)(F)F)n3)c(F)c2)n1 [Compound 1.253, 3-[4-[(3,5-dimethylpyrazol-1-yl)methyl]-2-fluoro-phenyl]-5-(trifluoromethyl)-1,2,4-oxadiazole]
≥ 80%: pest or weed control at 200 ppm [1] | pest or weed control at 200 ppm [2] | pest or weed control at 200 ppm [3] | inhibition of growth at 20 ppm [4]

O=Cc1cn(Cc2ccc(-c3noc(C(F)(F)F)n3)cc2)cn1 [Compound 1.151, 1-[[4-[5-(trifluoromethyl)-1,2,4-oxadiazol-3-yl]phenyl]methyl]imidazole-4-carbaldehyde]
≥ 80%: pest or weed control at 200 ppm [1] | pest or weed control at 200 ppm [2] | pest or weed control at 200 ppm [3] | inhibition of growth at 20 ppm [4]

FC(F)Sc1nc(-c2ccc(Cl)cc2)cn1Cc1ccc(-c2noc(C(F)(F)F)n2)cc1 [Compound 1.174, 3-[4-[[4-(4-chlorophenyl)-2-(difluoromethyl-sulfanyl)imidazol-1-yl]methyl]phenyl]-5-(trifluoromethyl)-1,2,4-oxadiazole]
≥ 80%: pest or weed control at 200 ppm [1] | pest or weed control at 200 ppm [2] | pest or weed control at 200 ppm [3] | inhibition of growth at 20 ppm [4]

Cc1cc(C#N)nn1Cc1ccc(-c2noc(C(F)(F)F)n2)cc1 [Compound 1.93, 5-methyl-1-[[4-[5-(trifluoromethyl)-1,2,4-oxadiazol-3-yl]phenyl]methyl]pyrazole-3-carbonitrile]
≥ 80%: pest or weed control at 200 ppm [1] | pest or weed control at 200 ppm [2] | pest or weed control at 200 ppm [3] | inhibition of growth at 20 ppm [4]

O=C(O)c1cnn(Cc2ccc(-c3noc(C(F)(F)F)n3)cc2)c1 [Compound 1.147, 1-[[4-[5-(trifluoromethyl)-1,2,4-oxadiazol-3-yl]phenyl]methyl]pyrazole-4-carboxylic acid]
≥ 80%: pest or weed control at 200 ppm [1] | pest or weed control at 200 ppm [2] | pest or weed control at 200 ppm [3] | inhibition of growth at 20 ppm [4]

CC(=O)NCCc1cn(Cc2ccc(-c3noc(C(F)(F)F)n3)cc2)cn1 [Compound 1.156, N-[2-[1-[[4-[5-(trifluoromethyl)-1,2,4-oxadiazol-3-yl]phenyl]methyl]imidazol-4-yl]ethyl]acetamide]
≥ 80%: pest or weed control at 200 ppm [1] | pest or weed control at 200 ppm [2] | pest or weed control at 200 ppm [3]
